Converted amounts (≈) assume the structure as drawn. Residues, ends and D or L forms follow the SMILES beside them.
Legend:
P. aeruginosa = experiment: MBC and MIC susceptibility test; format: cell-based; details: for MBC: Table III, P. aeuriginosa (−)
E. coli [1] = experiment: MBC and MIC susceptibility test; format: cell-based; details: for MBC: Table III
S. aureus = experiment: MBC and MIC susceptibility test; format: cell-based
EL-4 lymphoma cells = experiment: EL-4 cell killing, trypan blue exclusion; details: one hour, 37° C.
E. coli [2] = experiment: Synergy of lytic peptide with antibiotics; details: Manitou-1 0 μM
S. auerus = experiment: Synergy of lytic peptide with antibiotics; details: Manitou-1 0 μM

SMILES: CC(C)C[C@H](NC(=O)[C@H](CCCCN)NC(=O)[C@H](C)NC(=O)[C@H](CC(C)C)NC(=O)[C@H](CCCCN)NC(=O)[C@H](CCCCN)NC(=O)[C@H](C)NC(=O)[C@H](CC(C)C)NC(=O)[C@H](CCCCN)NC(=O)[C@H](C)NC(=O)[C@H](CC(C)C)NC(=O)[C@H](CCCCN)NC(=O)[C@H](CCCCN)NC(=O)[C@@H](N)CC(C)C)C(=O)N[C@@H](C)C(=O)N[C@@H](CCCCN)C(=O)N[C@@H](CCCCN)C(=O)N[C@@H](CC(C)C)C(=O)N[C@@H](C)C(=O)N[C@@H](CCCCN)C(=O)N[C@@H](CCCCN)C(N)=O [Anubis-8]
- antibacterial result of treatment (Table I; MBC) (P. aeruginosa; P. aeruginosa (−)): 16 µM
- antibacterial result of treatment (Table I; MBC) (E. coli [1]): 16 µM
- antibacterial result of treatment (Table I; MBC) (S. aureus; S. auerus (+)): 8 µM

SMILES: CC(C)C[C@H](NC(=O)[C@H](C)NC(=O)[C@H](CCCCN)NC(=O)[C@H](CCCCN)NC(=O)[C@H](CC(C)C)NC(=O)[C@H](C)NC(=O)[C@H](CCCCN)NC(=O)[C@H](CCCCN)NC(=O)[C@H](CC(C)C)NC(=O)[C@H](CCCCN)NC(=O)[C@H](CCCCN)NC(=O)[C@H](CC(C)C)NC(=O)[C@H](C)NC(=O)[C@H](CCCCN)NC(=O)[C@H](CCCCN)NC(=O)[C@H](CC(C)C)NC(=O)[C@H](C)NC(=O)[C@H](CCCCN)NC(=O)[C@H](CC(C)C)NC(=O)[C@H](C)NC(=O)[C@H](CC(C)C)NC(=O)[C@H](C)NC(=O)[C@@H](N)Cc1ccccc1)C(N)=O [Hecate-1] (H-FALALKALKKALKKLKKALKKAL-NH2)
- MBC (P. aeruginosa): 10.0 µM (≈ 25.4 µg/mL)
- MBC (E. coli [1]): 4.0 µM (≈ 10.1 µg/mL)

SMILES: CC[C@H](C)[C@H](NC(=O)CNC(=O)[C@H](CC(N)=O)NC(=O)[C@H](CCCNC(=N)N)NC(=O)[C@@H](NC(=O)[C@H](CC(N)=O)NC(=O)[C@H](CCCNC(=N)N)NC(=O)CNC(=O)[C@@H](NC(=O)[C@H](CCCCN)NC(=O)[C@H](CCC(=O)O)NC(=O)[C@@H](NC(=O)[C@H](CCCCN)NC(=O)[C@H](CCCCN)NC(=O)[C@H](Cc1ccccc1)NC(=O)[C@@H](NC(=O)[C@H](CCCCN)NC(=O)[C@H](Cc1c[nH]c2ccccc12)NC(=O)[C@H](CCCCN)NC(=O)[C@@H]1CCCN1C(=O)[C@@H](N)CCSC)C(C)C)[C@@H](C)CC)C(C)C)[C@@H](C)CC)C(=O)N[C@H](C(=O)N[C@@H](CCCCN)C(=O)N[C@@H](C)C(=O)NCC(=O)N1CCC[C@H]1C(=O)N[C@@H](C)C(=O)N[C@H](C(=O)N[C@@H](C)C(=O)N[C@H](C(=O)N[C@@H](CC(C)C)C(=O)NCC(=O)N[C@@H](CCC(=O)O)C(=O)N[C@@H](C)C(=O)N[C@@H](CCCCN)C(=O)N[C@@H](C)C(=O)N[C@@H](CC(C)C)C(=O)NCC(N)=O)C(C)C)[C@@H](C)CC)C(C)C [SB-37] (H-MPKWKVFKKIEKVGRNIRNGIVKAGPAIAVLGEAKALG-NH2)
- MBC (P. aeruginosa): 3.5 µM (≈ 14.3 µg/mL)
- MBC (E. coli [1]): 2.0 µM (≈ 8.18 µg/mL)
- MBC (S. aureus; Table III, S. aureus (+)): 64 µM (≈ 262 µg/mL)

SMILES: CC[C@H](C)[C@H](NC(=O)CNC(=O)[C@H](CCC(N)=O)NC(=O)[C@H](CCCCN)NC(=O)[C@@H](NC(=O)[C@H](CCC(N)=O)NC(=O)[C@H](CCCCN)NC(=O)CNC(=O)[C@@H](NC(=O)[C@H](CCCNC(=N)N)NC(=O)[C@H](CC(=O)O)NC(=O)[C@@H](NC(=O)[C@H](CCCNC(=N)N)NC(=O)[C@H](CCCNC(=N)N)NC(=O)[C@H](Cc1ccccc1)NC(=O)[C@H](CC(C)C)NC(=O)[C@H](CCCNC(=N)N)NC(=O)[C@H](Cc1c[nH]c2ccccc12)NC(=O)[C@H](CCCNC(=N)N)NC(=O)[C@@H]1CCCN1C(=O)[C@@H](N)CCSC)[C@@H](C)CC)C(C)C)[C@@H](C)CC)C(=O)N[C@@H](CC(C)C)C(=O)N[C@@H](CCCNC(=N)N)C(=O)N[C@@H](C)C(=O)NCC(=O)N1CCC[C@H]1C(=O)N[C@@H](C)C(=O)N[C@H](C(=O)N[C@@H](C)C(=O)N[C@@H](CC(C)C)C(=O)N[C@H](C(=O)NCC(=O)N[C@@H](CC(=O)O)C(=O)N[C@@H](C)C(=O)N[C@@H](CCCNC(=N)N)C(=O)N[C@@H](C)C(=O)N[C@H](C(=O)NCC(N)=O)C(C)C)C(C)C)[C@@H](C)CC [Shiva-1] (H-MPRWRLFRRIDRVGKQIKQGILRAGPAIALVGDARAVG-NH2; N-terminus and C-terminus assumed)
- % EL-4 Cells Killed (EL-4 lymphoma cells; 10 μM peptide): 2%
- % EL-4 Cells Killed (EL-4 lymphoma cells; 25 μM peptide): 18%
- % EL-4 Cells Killed (EL-4 lymphoma cells; 50 μM peptide): 42%
- % EL-4 Cells Killed (EL-4 lymphoma cells; 100 μM peptide): 87%

SMILES: CC(C)C[C@H](NC(=O)[C@H](C)NC(=O)[C@H](CC(C)C)NC(=O)[C@H](C)NC(=O)[C@H](CC(C)C)NC(=O)[C@H](CCCCN)NC(=O)[C@H](C)NC(=O)[C@H](CC(C)C)NC(=O)[C@H](CCCCN)NC(=O)[C@H](CCCCN)NC(=O)[C@H](C)NC(=O)[C@H](CC(C)C)NC(=O)[C@H](CCCCN)NC(=O)[C@H](CCCCN)NC(=O)[C@H](CC(C)C)NC(=O)[C@H](CCCCN)NC(=O)[C@H](CCCCN)NC(=O)[C@H](C)NC(=O)[C@H](CC(C)C)NC(=O)[C@H](CCCCN)NC(=O)[C@H](CCCCN)NC(=O)[C@H](C)NC(=O)[C@@H](N)Cc1ccccc1)C(N)=O [Shiva-10]
- MBC (P. aeruginosa): 2.0 µM (≈ 5.07 µg/mL)
- MBC (E. coli [1]): 1.0 µM (≈ 2.54 µg/mL)

SMILES: [H]/N=C(/N)N[C@H]1[C@H](O)[C@@H](O)[C@H](O[C@@H]2O[C@@H](C)[C@](O)(C=O)[C@H]2O[C@@H]2O[C@@H](CO)[C@H](O)[C@@H](O)[C@@H]2NC)[C@@H](N/C(N)=N\[H])[C@@H]1O [Streptomycin, reference compound]
- % Cell Death In E. coli (E. coli [2]; antibiotic 0.5 μM alone): 0%
- % Cell Death In E. coli (E. coli [2]; antibiotic 5.0 μM alone): 87%
- % Cell Death In S. auerus (S. auerus; antibiotic 0.5 μM alone): 0%
- % Cell Death In S. auerus (S. auerus; antibiotic 5.0 μM alone): 87%

SMILES: CN(C)[C@@H]1C(O)=C(C(N)=O)C(=O)[C@@]2(O)C(O)=C3C(=O)c4c(O)cccc4[C@@](C)(O)[C@H]3C[C@@H]12 [Tetracycline, reference compound]
- % Cell Death In E. coli (E. coli [2]; antibiotic 0.5 μM alone): 0%
- % Cell Death In E. coli (E. coli [2]; antibiotic 5.0 μM alone): 58%
- % Cell Death In S. auerus (S. auerus; antibiotic 0.5 μM alone): 0%
- % Cell Death In S. auerus (S. auerus; antibiotic 5.0 μM alone): 35%
